Laboratory results as given in US10392368B2, “Pyrazolo and triazolo bicyclic compounds as JAK kinase inhibitors” (THERAVANCE BIOPHARMA R&D IP, LLC, priority 2017, dated 2019).
Like-named read-outs stand apart in the source and are kept apart here.

What was measured:
JAK1 = molecular target: T1, JAK1 (Homo sapiens, UniProt P23458); test: Biochemical JAK1 kinase assay (LanthaScreen); conditions: for Ki: read-out: JAK 1 (pKi) (converted)
T1 construct: GST; purchased Life Technologies
How it was run: (§1)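 Values are pKi, calculated by Cheng-Prusoff from IC50 obtained by robust 4-parameter fitting of percent inhibition. The kinase reaction used GFP-STAT1 peptide in HEPES pH 7.5 buffer with MgCl2, EGTA and Brij-35, ATP-initiated after compound pre-incubation, 1 h at ambient temperature.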

JAK2 = molecular target: T2, JAK2 (Homo sapiens, UniProt O60674); test: Biochemical JAK2 kinase assay (LanthaScreen); conditions: for Ki: read-out: JAK 2 (pKi) (converted)
T2 construct: GST; purchased Life Technologies
T2 sequence (O60674 whole entry): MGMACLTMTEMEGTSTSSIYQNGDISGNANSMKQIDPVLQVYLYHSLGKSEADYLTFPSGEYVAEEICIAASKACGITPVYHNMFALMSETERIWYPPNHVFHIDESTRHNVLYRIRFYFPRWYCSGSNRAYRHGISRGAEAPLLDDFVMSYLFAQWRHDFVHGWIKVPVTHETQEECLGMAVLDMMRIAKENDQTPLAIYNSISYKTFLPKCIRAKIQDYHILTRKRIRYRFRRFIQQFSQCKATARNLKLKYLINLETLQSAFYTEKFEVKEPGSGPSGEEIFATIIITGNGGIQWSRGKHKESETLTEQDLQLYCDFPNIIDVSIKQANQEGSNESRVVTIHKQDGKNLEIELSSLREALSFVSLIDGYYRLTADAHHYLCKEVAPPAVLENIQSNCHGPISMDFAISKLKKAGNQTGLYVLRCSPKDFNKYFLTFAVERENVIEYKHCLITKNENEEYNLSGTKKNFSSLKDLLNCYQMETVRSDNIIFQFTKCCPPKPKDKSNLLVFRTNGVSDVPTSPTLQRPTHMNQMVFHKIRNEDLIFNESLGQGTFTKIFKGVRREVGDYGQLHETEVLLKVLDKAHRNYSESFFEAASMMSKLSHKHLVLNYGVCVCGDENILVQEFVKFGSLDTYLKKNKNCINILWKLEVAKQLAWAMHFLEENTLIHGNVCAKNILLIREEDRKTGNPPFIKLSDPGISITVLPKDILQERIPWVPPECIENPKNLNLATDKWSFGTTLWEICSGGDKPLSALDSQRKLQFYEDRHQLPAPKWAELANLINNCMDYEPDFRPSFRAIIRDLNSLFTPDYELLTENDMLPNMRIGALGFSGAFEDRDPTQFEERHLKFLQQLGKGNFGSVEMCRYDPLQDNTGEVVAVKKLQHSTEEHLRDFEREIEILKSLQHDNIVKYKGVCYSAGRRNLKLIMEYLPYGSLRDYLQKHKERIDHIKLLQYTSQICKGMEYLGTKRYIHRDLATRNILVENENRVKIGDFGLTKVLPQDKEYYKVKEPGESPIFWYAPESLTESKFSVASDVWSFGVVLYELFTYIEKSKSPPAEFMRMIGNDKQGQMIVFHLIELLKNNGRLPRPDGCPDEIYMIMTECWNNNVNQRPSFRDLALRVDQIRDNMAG
How it was run: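 pKi values derive from pIC50 via Cheng-Prusoff, with IC50 from a 4-parameter fit of percent-inhibition TR-FRET data using Tb-anti-pSTAT1 (pTyr701) detection. Compound, GST-JAK2 and GFP-STAT1 substrate were pre-incubated 1 h, then ATP started a 1 h ambient reaction (HEPES pH 7.5, 10 mM MgCl2, 1% DMSO).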

Tyk2 = molecular target: T3, Tyk2 (Homo sapiens, UniProt P29597); test: Biochemical Tyk2 kinase assay (LanthaScreen); conditions: for Ki: read-out: Tyk 2 (pKi) (converted)
T3 construct: GST; purchased Life Technologies
T3 sequence (P29597 whole entry): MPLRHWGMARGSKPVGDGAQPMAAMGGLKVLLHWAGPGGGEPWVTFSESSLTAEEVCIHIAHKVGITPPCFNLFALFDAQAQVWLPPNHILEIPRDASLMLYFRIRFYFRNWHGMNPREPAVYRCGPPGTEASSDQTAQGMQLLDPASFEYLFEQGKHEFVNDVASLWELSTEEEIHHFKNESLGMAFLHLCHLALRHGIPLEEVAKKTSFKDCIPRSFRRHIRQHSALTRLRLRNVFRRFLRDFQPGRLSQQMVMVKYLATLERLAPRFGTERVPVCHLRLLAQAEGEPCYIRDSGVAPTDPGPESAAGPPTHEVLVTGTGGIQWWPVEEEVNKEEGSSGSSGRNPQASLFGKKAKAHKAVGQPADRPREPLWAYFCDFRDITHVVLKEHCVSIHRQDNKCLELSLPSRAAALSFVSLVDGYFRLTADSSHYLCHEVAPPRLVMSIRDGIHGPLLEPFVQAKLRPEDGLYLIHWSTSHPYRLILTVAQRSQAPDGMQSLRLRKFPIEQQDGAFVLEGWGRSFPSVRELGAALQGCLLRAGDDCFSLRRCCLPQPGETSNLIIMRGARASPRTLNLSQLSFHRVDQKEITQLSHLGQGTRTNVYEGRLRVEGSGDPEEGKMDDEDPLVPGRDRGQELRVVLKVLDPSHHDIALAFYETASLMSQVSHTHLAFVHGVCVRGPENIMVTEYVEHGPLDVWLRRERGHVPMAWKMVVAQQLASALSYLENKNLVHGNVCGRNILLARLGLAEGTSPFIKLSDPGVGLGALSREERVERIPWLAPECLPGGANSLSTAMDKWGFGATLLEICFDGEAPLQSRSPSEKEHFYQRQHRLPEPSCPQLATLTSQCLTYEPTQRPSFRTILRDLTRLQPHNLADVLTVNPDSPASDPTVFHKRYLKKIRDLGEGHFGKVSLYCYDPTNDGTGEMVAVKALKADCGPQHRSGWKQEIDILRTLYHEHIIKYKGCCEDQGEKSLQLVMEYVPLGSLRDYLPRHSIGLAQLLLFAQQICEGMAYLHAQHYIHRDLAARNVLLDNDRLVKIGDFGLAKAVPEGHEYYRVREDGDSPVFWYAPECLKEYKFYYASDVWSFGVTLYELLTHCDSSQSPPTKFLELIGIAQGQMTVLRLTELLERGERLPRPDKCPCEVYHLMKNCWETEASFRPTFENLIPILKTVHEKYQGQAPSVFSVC
Protocol: A panel of four LanthaScreen JAK biochemical assays (JAK1, 2, 3 and Tyk2) were carried in a common kinase reaction buffer (50 mM HEPES, pH 7.5, 0.01% Brij-35, 10 mM MgCl2, and 1 mM EGTA). Recombinant GST-tagged JAK enzymes and a GFP-tagged STAT1 peptide substrate were obtained from Life Technologies.
Serially or discretely diluted compounds were pre-incubated with each of the four JAK enzymes and the substrate in white 384-well microplates (Corning) at ambient temperature for 1 h. ATP was subsequently added to initiate the kinase reactions in 10 μL total volume, with 1% DMSO. […] Kinase reactions were allowed to proceed for 1 hour at ambient temperature before a 10 μL preparation of EDTA (10 mM final concentration) and Tb-anti-pSTAT1 (pTyr701) antibody (Life Technologies, 2 nM final concentration) in TR-FRET dilution buffer (Life Technologies) was added. The plates were allowed to incubate at ambient temperature for 1 h before being read on the EnVision reader (Perkin Elmer). Emission ratio signals (520 nm/495 nm) were recorded and utilized to calculate the percent inhibition values based on DMSO and background controls.
For dose-response analysis, percent inhibition data were plotted vs. compound concentrations, and IC50 values were determined from a 4-parameter robust fit model with the Prism software (GraphPad Software). Results were expressed as pIC50 (negative logarithm of IC50) and subsequently converted to pKi (negative logarithm of dissociation constant, Ki) using the Cheng-Prusoff equation.

[1] = system: IL-2 stimulated pSTAT5 in Tall-1 T cells; test: Cellular JAK3 potency assay: inhibition of IL-2 stimulated pSTAT5 in Tall-1 T cells; type: cell-based, human; conditions: for IC50: Homo sapiens, read-out: Tall-1 (pIC50) (converted)
How it was run: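 Inhibition of IL-2-induced pSTAT5 was quantified by AlphaLisa in Tall-1 cell lysates. Compound exposure lasted 1 h before 30 min stimulation with 300 ng/ml IL-2 final.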

JAK3 = molecular target: T4, JAK3 (Homo sapiens, UniProt P52333); test: Biochemical JAK3 kinase assay (LanthaScreen); design: GST; purchased Life Technologies; conditions: for Ki: read-out: JAK 3 (pKi) (converted)
T4 sequence (P52333 1-1124): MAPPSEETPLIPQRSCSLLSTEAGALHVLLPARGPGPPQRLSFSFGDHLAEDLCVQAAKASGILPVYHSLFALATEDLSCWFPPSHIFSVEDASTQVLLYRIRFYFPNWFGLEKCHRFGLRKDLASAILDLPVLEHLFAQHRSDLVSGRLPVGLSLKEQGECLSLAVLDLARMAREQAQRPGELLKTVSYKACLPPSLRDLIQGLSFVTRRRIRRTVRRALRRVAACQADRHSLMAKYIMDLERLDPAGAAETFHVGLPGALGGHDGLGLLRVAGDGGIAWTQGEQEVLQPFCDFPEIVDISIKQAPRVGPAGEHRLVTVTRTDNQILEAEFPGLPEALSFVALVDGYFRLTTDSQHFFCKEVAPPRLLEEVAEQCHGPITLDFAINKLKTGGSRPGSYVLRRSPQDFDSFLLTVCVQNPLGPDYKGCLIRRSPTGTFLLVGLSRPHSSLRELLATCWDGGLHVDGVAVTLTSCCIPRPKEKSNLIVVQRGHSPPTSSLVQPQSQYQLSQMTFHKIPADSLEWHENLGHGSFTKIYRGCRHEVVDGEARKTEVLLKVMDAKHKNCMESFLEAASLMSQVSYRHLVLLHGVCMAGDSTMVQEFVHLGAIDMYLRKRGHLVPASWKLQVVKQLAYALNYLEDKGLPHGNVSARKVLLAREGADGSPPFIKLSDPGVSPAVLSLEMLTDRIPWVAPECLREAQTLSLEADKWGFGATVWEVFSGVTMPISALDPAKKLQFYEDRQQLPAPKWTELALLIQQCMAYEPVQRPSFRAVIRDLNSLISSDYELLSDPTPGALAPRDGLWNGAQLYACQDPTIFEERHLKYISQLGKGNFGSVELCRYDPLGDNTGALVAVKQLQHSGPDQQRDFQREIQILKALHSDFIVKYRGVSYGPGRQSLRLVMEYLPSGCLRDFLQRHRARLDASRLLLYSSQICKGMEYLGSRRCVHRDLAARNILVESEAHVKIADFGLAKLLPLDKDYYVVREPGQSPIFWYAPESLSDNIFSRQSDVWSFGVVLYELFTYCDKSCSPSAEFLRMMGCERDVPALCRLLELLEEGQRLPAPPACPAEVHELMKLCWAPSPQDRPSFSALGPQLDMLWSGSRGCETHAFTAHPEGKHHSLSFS
How it was run: as §1

[2] = selectivity JAK3 over JAK1, difference of pKi
[3] = TALL-1, IL-2 stimulated pSTAT5, Tall-1 T cells
[4] = selectivity: difference of pKi JAK3 and pKi JAK1
[5] = IL-2 stimulated pSTAT5 in Tall-1 T cells

T1 sequence (P23458 whole entry): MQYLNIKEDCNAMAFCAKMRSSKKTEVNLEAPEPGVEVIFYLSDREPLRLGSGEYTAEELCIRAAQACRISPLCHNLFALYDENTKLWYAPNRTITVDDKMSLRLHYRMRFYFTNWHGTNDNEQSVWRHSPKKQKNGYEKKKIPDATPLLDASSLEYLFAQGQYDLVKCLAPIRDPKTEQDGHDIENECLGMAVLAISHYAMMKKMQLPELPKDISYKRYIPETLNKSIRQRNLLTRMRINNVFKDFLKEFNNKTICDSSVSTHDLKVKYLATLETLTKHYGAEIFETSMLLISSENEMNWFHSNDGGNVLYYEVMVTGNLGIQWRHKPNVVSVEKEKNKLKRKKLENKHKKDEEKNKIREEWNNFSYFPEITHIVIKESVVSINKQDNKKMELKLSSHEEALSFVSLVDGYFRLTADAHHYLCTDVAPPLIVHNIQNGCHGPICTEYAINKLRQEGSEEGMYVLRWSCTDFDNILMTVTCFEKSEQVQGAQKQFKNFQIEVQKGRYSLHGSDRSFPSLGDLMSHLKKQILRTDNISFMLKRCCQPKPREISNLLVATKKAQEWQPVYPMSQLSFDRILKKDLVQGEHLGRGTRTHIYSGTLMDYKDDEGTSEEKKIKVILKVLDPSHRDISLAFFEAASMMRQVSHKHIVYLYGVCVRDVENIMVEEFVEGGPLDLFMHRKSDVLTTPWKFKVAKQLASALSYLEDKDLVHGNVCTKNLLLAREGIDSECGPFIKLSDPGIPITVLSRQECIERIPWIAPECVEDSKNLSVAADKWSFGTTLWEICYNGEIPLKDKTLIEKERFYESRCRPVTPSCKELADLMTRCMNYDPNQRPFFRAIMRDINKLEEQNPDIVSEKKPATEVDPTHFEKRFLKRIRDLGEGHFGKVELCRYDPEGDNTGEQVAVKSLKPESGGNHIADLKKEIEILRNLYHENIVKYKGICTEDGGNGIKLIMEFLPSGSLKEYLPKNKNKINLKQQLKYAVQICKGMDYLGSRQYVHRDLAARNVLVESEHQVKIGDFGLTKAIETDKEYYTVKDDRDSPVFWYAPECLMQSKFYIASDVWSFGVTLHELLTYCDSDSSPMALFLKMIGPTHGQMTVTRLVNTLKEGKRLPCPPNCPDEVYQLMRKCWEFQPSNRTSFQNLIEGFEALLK

Structure (SMILES): C=CC(=O)N1CC(CSc2cc(-c3ccc(O)c(Cl)c3)nc3[nH]ncc23)C1 [Compound 13-1]
- JAK 1 (pKi) (JAK1): E (a pKi value of 7 or below (Ki of 100 nM or above))
- JAK 2 (pKi) (JAK2): E (a pKi value of 7 or below (Ki of 100 nM or above))
- Tyk 2 (pKi) (Tyk2): E (a pKi value of 7 or below (Ki of 100 nM or above))
- Tall-1 (pIC50) ([1]; IL-2 stimulated pSTAT5, Tall-1 T cells): B (a pIC50 value between 6.7 (included) and 7.5 (IC50 between 200 nM and 32 nM))
- JAK 3 (pKi) (JAK3): B (a pKi value between 9 and 10 (Ki between 1 nM and 0.1 nM))
- JAK3 (pKi)-JAK1 (pKi) (JAK3; [2]): A (a value of 3 or above)

Structure (SMILES): C=CC(=O)N1C[C@@H](C)O[C@@H](C(=O)Nc2cc(-c3ccc(O)cc3)cc3[nH]ncc23)C1 [Compound 12-61]
- Ki (JAK1): > 100 nM
- Ki (JAK2): > 100 nM
- Ki (Tyk2): > 100 nM
- IC50 [1, 3]: 31.6 to 200 nM
- Ki (JAK3): < 0.1 nM
- JAK3 (pKi)-JAK1 (pKi) (JAK3; [2]): A (a value of 3 or above)

Structure (SMILES): CN(C)C/C=C\C(=O)N1CC(COc2cc(-c3ccc(O)c(Cl)c3)cc3[nH]ncc23)C1 [Compound 3-122]
- Ki (JAK1): > 100 nM
- Ki (JAK2): 10 to 100 nM
- Ki (Tyk2): > 100 nM
- IC50 ([1]; TALL-1, IL-2 stimulated pSTAT5 in Tall-1 T cells): < 31.6 nM
- Ki (JAK3): < 0.1 nM
- JAK3 (pKi)-JAK1 (pKi) (JAK3; [4]): A (a value of 3 or above)

Structure (SMILES): C=CC(=O)N1CC[C@@H](Oc2cc(-c3ccc(O)cc3)cc3[nH]ncc23)C[C@@H]1C [Compound 12-30]
- Ki (JAK1): > 100 nM
- Ki (JAK2): 1 to 10 nM
- Ki (Tyk2): > 100 nM
- IC50 [1, 3]: < 31.6 nM
- Ki (JAK3): < 0.1 nM
- JAK3 (pKi)-JAK1 (pKi) (JAK3; [2]): A (a value of 3 or above)

Structure (SMILES): CN(C)C/C=C/C(=O)N1CC(C)(COc2nc(-c3ccc(O)c(Cl)c3)cc3[nH]ncc23)C1 [Compound 3-95]
- JAK 1 (pKi) (JAK1): E (a pKi value of 7 or below (Ki of 100 nM or above))
- JAK 2 (pKi) (JAK2): E (a pKi value of 7 or below (Ki of 100 nM or above))
- Tyk 2 (pKi) (Tyk2): E (a pKi value of 7 or below (Ki of 100 nM or above))
- Tall-1 (pIC50) [1, 5]: A (a pIC50 value≥7.5 (IC50≤32 nM))
- JAK 3 (pKi) (JAK3): A (a pKi value≥10 (Ki≤0.1 nM))
- JAK3 (pKi)-JAK1 (pKi) (JAK3; [4]): A (a value of 3 or above)

Structure (SMILES): CN(C)C/C=C/C(=O)N1CC(Oc2cc(-c3ccc(O)c(Cl)c3)cc3[nH]ncc23)C1 [Compound 5-3]
- JAK 1 (pKi) (JAK1): E (a pKi value of 7 or below (Ki of 100 nM or above))
- JAK 2 (pKi) (JAK2): E (a pKi value of 7 or below (Ki of 100 nM or above))
- Tyk 2 (pKi) (Tyk2): E (a pKi value of 7 or below (Ki of 100 nM or above))
- Tall-1 (pIC50) [1, 5]: A (a pIC50 value≥7.5 (IC50≤32 nM))
- JAK 3 (pKi) (JAK3): A (a pKi value≥10 (Ki≤0.1 nM))
- JAK3 (pKi)-JAK1 (pKi) (JAK3; [4]): A (a value of 3 or above)

Structure (SMILES): C=CC(=O)N1CCOC[C@H]1C(=O)Nc1cc(-c2ccc(O)cc2)cc2[nH]ncc12 [Compound 12-63]
- Ki (JAK1): > 100 nM
- Ki (JAK2): > 100 nM
- Ki (Tyk2): > 100 nM
- IC50 [1, 3]: 31.6 to 200 nM
- Ki (JAK3): 0.1 to 1 nM
- JAK3 (pKi)-JAK1 (pKi) (JAK3; [2]): A (a value of 3 or above)
